Values quoted from earlier work, collected in patent US9717704B2, “Method of treating, delaying and/or preventing Alzheimer's Disease” (Smartfish AS, priority 2013, dated 2017).

Tests used:
[1] = tested on: PBMCs / macrophages of AD patients; conditions: in vitro (Mizwicki et al. 2013)
[2] = tested on: amyloid-beta; conditions: cell lines (Marambaud, Zhao et al. 2005)

| SMILES | Abeta phagocytosis [1] | deregulation of inflammatory genes [1] | proteasome degradation of amyloid-beta [2] |
| --- | --- | --- | --- |
| C=C1/C(=C\C=C2/CCC[C@]3(C)[C@@H]([C@H](C)CCCC(C)(C)O)CC[C@@H]23)C[C@@H](O)C[C@@H]1O [1,25dihydroxyvitamin D3] | repair | repair the deregulation of these genes | – |
| Oc1ccc(/C=C/c2cc(O)cc(O)c2)cc1 [Resveratrol, 3,5,4′-trihydroxy-trans-stilbene] | – | – | promote proteasome degradation of amyloid-beta |
| CC/C=C\C[C@H](O)/C=C/C=C\C=C\C=C\[C@@H](O)[C@@H](O)C/C=C\CCC(=O)O [resolvin D1] | repair | repair the deregulation of these genes | – |
